According to ChEMBL document CHEMBL4813937, “Jatrophane Diterpenoids from Euphorbia peplus as Multidrug Resistance Modulators with Inhibitory Effects on the ATR-Chk-1 Pathway” (J Nat Prod, 2021):
Active and inactive are the calls of the source. No cut-off for these calls is given here.

test system: not listed separately; test: Inhibition of ATR/Chk1 pathway in human A549 cells assessed as suppression of […]-induced phosphorylation of Chk1 on serine-345 residue at 20 uM incubated for 12 hrs by Western blotting analysis; type: cell-based

| Compound | inhibition |
| --- | --- |
| C=C1[C@H](OC(=O)C(C)C)[C@@H](OC(C)=O)[C@@H](OC(C)=O)C(C)(C)/C=C/[C@H](C)[C@H](OC(C)=O)[C@@]2(O)C[C@@](C)(OC(C)=O)[C@H](OC(=O)c3ccccc3)[C@@H]2[C@H]1OC(C)=O | Active |
| C=C1[C@H](OC(C)=O)[C@@H](OC(C)=O)[C@@H](OC(C)=O)C(C)(C)/C=C/[C@H](C)[C@H](OC(C)=O)[C@@]2(O)C[C@@](C)(OC(C)=O)[C@H](OC(=O)c3ccccc3)[C@@H]2[C@H]1OC(C)=O | Active |
| C=C1[C@H](OC(C)=O)CC(=O)C(C)(C)/C=C/[C@H](C)C(=O)[C@@]2(O)C[C@@](C)(O)[C@H](OC(=O)c3ccccc3)[C@@H]2[C@H]1OC(C)=O | Active |
| C=C1[C@H](OC(C)=O)[C@H]2[C@@H](OC(=O)c3ccccc3)[C@](C)(O)C[C@]2(O)C(=O)[C@@H](C)/C=C/C(C)(C)C(=O)[C@H](OC(C)=O)[C@H]1OC(C)=O | Active |
| C=C1[C@H](OC(C)=O)[C@H]2[C@@H](OC(=O)c3ccccc3)[C@](C)(OC(C)=O)C[C@]2(O)C(=O)[C@@H](C)/C=C/C(C)(C)C(=O)[C@H](OC(C)=O)[C@H]1OC(C)=O | Active |

test system: A549; test: Induction of apoptosis in human A549 cells assessed as increase in PARP cleavage at 25 uM incubated for 48 hrs by Western blotting analysis; type: functional, cell-based

| Compound | Activity |
| --- | --- |
| CC[C@@]1(O)C(=O)OCc2c1cc1n(c2=O)Cc2cc3ccccc3nc2-1 | inactive |
